Assay results as given in patent US20240197871A1, “COMBINATION OF A CAR T CELL THERAPY AND AN IMMUNOMODULATORY COMPOUND FOR TREATMENT OF LYMPHOMA” (Juno Therapeutics, Inc., priority 2021, published 2024).

Tested on: anti-CD19 CAR T cells
Assay: Intracellular cytokine levels in stimulated anti-CD19 CAR T cells
Type: cell-based, human
Details: 72 hours, 30 μg/mL anti-idiotypic antibody
Method: Anti-CD19 CAR-expressing T cell compositions were generated from three different healthy donors as described in Example 1. Prior to use, cryopreserved CD4+ and CD8+ engineered cell compositions were thawed and combined at approximately a 1:1 CD4:CD8 ratio.
Following incubation, stimulated CAR T cells were harvested, washed twice in media, and assessed.
Intracellular cytokine levels in CAR T cells that had been stimulated for 72 hours with 30 μg/mL of anti-idiotypic antibody were determined. To do so, supernatants were collected from the stimulated CAR T cells and were analyzed for interferon-γ (IFN-γ) and interleukin-2 (IL-2) content using a multiplex electrochemiluminescence assay. To stain for intracellular cytokines, including Perforin and Granzyme B, cells were fixed and permeabilized using a Foxp3/Transcription Factor Staining Buffer Set (Thermo Fisher Scientific). Intracellular cytokine levels of IFNγ, perforin, granzyme B, and IL-2 were then determined by flow cytometry. […] Log2 fold-change values greater than zero are indicated with a “+” in FIG. 2F. Similar results were observed when measuring the percentage of cells positive for the cytokines.

## O=C1CC[C@H](N2C(=O)c3cccc(NCc4ccc(CN5CC(N6CCOCC6)C5)cc4F)c3C2=O)C(=O)N1 [Compound C, (S)-2-(2,6-dioxopiperidin-3-yl)-4-((2-fluoro-4-((3-morpholinoazetidin-1-yl)methyl)benzyl)amino)isoindoline-1,3-dione]
  intracellular expression of effector cytokines (IFNγ, perforin, granzyme B), fold change in MFI vs vehicle: increased production of certain cytokines
